Reference: US10765748B2, “Composition and methods for tethering bioactive peptides to metal oxide surfaces” (University of Akron, priority 2014, dated 2020)
“Also recorded” adds a separate entry of the source. Peptide text beside a SMILES is read from it. * marks the point of attachment. X1 = O=C(CCc1ccc(O)c(O)c1)NCCCC[C@H](NC(=O)CCc1ccc(O)c(O)c1)C(=O)*; FITC = O=C1OC2(c3ccc(O)cc3Oc3cc(O)ccc32)c2ccc(NC(=S)*)cc21; Dihydrocaffeoyl = O=C(CCc1ccc(O)c(O)c1)*

Tests used:
[1] = Live/Dead viability assay; assay type: cell-based; settings: mouse; immobilized on TiO2 substrates, cultured 24 hours
Procedure: The toxicity of the dendron of the embodiments of the present invention was tested using mouse calvarial pre-osteoblast cells ([…]) cells. The MC3T3-E1 cells were seeded on the TiO2 substrates with immobilized FITC-labeled OGP-Cat and cultured for 24 hours. […] The cells were well spread on the peptide-bearing surfaces, which is a consistent with an adherent proliferating cell population. See also, Example 17.
MC3T3-E1 mouse preosteoblast (passage 17) were expanded and cultured in α-MEM media (Gibco, Life Technologies, Grand Island, N.Y.) supplemented with 10% fetal bovine serum (FBS) (Invitrogen), 100 units/mL penicillin (Invitrogen), and 100 μg/mL streptomycin (Invitrogen) at 37° C. in a 5% CO2 humidified atmosphere. The cells were subcultured every 3 days in the presence of 0.25% (w/v) trypsin and 0.5% (w/v) ethylenediaminetetraacetic acid tetrasodium salt (EDTA) solution. […]
Viability of the cell culture of Example 16 above was evaluated using a Live/Dead viability/cytotoxicity kit (Invitrogen, UK). […] The staining solution was removed and the samples were viewed under the IX81 fluorescence microscope (Olympus) with 494 nm (green, Calcein) and 528 nm (red, EthD-1) emission filters. For quantitative analysis a total of 250 cells were counted from each sample over 25 randomly chosen areas and the viable and non-viable cells counts were recorded.

[2] = Fluorescence intensity of FITC-labeled OGP-Cat immobilized on TiO2; assay type: physicochemical; settings: 3 days in 25 mM HEPES buffer pH 7.4
Procedure: Fluorescein-labeled modular peptide (FITC-labeled OGP-Cat) was also synthesized to visualize the presence of the immobilized peptides on TiO2 surface using fluorescence microscopy. (See, Example 13). After immobilization of FITC-labeled OGP-Cat onto TiO2 surfaces, the fluorescence intensity was much stronger compared to the control sample, which incubating TiO2-coated substrates in a solution of FITC at identical concentration. […] See, FIGS. 10A-B.
To study the stability of sequestered modular peptides on targeting surfaces, the modular peptide immobilized TiO2 substrates were immersed in 25 mM HEPES buffer (pH=7.4 at 25° C.) and incubated for different durations. The mean intensity of FITC-labeled OGP-Cat immobilized TiO2 substrates after incubation was quantified to detect the diffusion of FITC-labeled OGP-Cat into surrounding solution. (See FIG. 11). […] It is believed that the mismatch of retention time for the monovalent ligands may be attributed to the sensitivity difference of XPS and fluorescence microscopy. […]
The florescence intensity of FITC-OGP-(Cat)n (n=1, 2, and 4) on TiO2, Fe2O3, Fe3O4, ZrO2, CeO2, SiO2, and Au substrates was viewed with an inverted IX81 Microscope (Olympus, Center Valley, Pa.) with mercury bulb excitation and the appropriate filters. […] The mean intensity was calculated based on at least 10 randomly chosen sites observed under the same conditions.

[3] = QCM-d adsorption of OGP-(Cat)4 to iron oxide; assay type: binding; settings: c=1 μM
Procedure: (§1) The adsorption of tetravalent binding ligand OGP-(Cat)4 to a wide range of materials was tested to identify common features of materials to which the catechol-bearing ligands of various embodiments of the present invention strongly bind. […] While not wanting to be bound by theory, it is believed that this is because the coordination bond between catechol and metals with empty d-orbitals or f-orbitals provides a stronger interaction than Hydrogen bonding. […] Therefore, it is believed that OGP-(Cat)4 will be highly useful for the functionalization of transition metal oxides.
(§2) Quartz crystal microbalance with dissipation (QCM-d) was used to determine the binding isotherm for OGP-(Cat)4 on TiO2, Fe2O3, Fe3O4, ZrO2, CeO2, SiO2, and Au substrates. The AT cut sensors were purchased from Biolin Scientific AB (Sweden) and cleaned before use according to the protocol provided by the company. The sensor was excited at 5 MHz as its fundamental frequency. The frequency shift (Δf) and dissipation (ΔD) were measured at 3rd, 5th, 7th, 9th, 11th and 13th overtones. 25 mM HEPES buffer (pH=7.40 at 25° C.) was used as the flow medium. Sensors were mounted in the modules immediately after cleaning. […] Then solutions of catechol-bearing peptide (OGP-(Cat)4) in HEPES buffer were introduced and the flow continued until the adsorption reached its equilibrium state. […]

[4] = QCM-d adsorption of OGP-(Cat)4 to hydroxyapatite; assay type: binding; settings: c=10 μM
Procedure: as §1

[5] = QCM-d adsorption of OGP-(Cat)4 to ZrO2; assay type: binding; settings: c=1 μM
Procedure: as §1, §2

[6] = XPS of immobilized modular peptides on TiO2 substrates and retention in HEPES buffer; assay type: physicochemical; settings: HEPES buffer pH 7.4
Procedure: Immobilization of peptides onto TiO2 surface was accomplished by immersing the TiO2 substrates into the corresponding modular peptide solution and incubating it overnight at ambient temperature. The successful immobilization of OGP-Cat and OGP-(Cat)4 onto TiO2-coated substrates were confirmed by XPS. Nitrogen is the element contained only in the modular peptides while not in bare TiO2, as shown in the XPS survey scan of bare TiO2 and OGP-(Cat)4 in FIG. 9A. […] It is noted that the N1s peaks in FIG. 9B are normalized to the highest intensity (O1s) for comparison of the signal to noise ratio.
To quantify the increase in nitrogen due to adsorption of OGP-Cat and OGP-(Cat)4, the nitrogen content (N1s) was normalized with Ti content (Ti2p), and compared with TiO2 substrate after incubation in HEPES buffer overnight (TiO2 as control), as show in Table 2, below.
To study the stability of sequestered modular peptides on targeting surfaces, the modular peptide immobilized TiO2 substrates were immersed in 25 mM HEPES buffer (pH=7.4 at 25° C.) and incubated for different durations. The mean intensity of FITC-labeled OGP-Cat immobilized TiO2 substrates after incubation was quantified to detect the diffusion of FITC-labeled OGP-Cat into surrounding solution. (See FIG. 11). […]

[7] = QCM-d adsorption of OGP-(Cat)4 to SiO2; assay type: binding
Procedure: as §1, §2

[8] = QCM-d adsorption of OGP-(Cat)4 to CeO2; assay type: binding; settings: c=1 μM
Procedure: as §1, §2

[9] = QCM-d adsorption of OGP-(Cat)4 to Al2O3; assay type: binding; settings: c=10 μM
Procedure: as §1

[10] = QCM-d adsorption of catechol-functionalized dendrons to TiO2 surface; assay type: binding; settings: for concentration to obtain ~6 Hz frequency shift: TiO2, 25° C., pH 7.4; for apparent disassociation constant Kd: 25° C., pH 7.4, single-site specific binding model; for maximum adsorption (Bmax): single-site specific binding model
Procedure: The adsorption processes of all molecules to TiO2 surfaces at 25° C. and pH 7.4 were monitored by quartz crystal microbalance with dissipation (QCM-d). (See Example 7). Multivalent binding effects that enhanced the binding affinity were clear. In FIG. 2, to obtain a similar level of adsorption, ˜6 Hz frequency shift, the concentration of monovalent ligand, OGP-Cat, was 13 μM, while that of tetravalent ligand, OGP-(Cat)4 and OGP-PEG-(Cat)4, was 0.32 and 0.16 μM, respectively due to the mass differences. A much smaller amount of sample (˜80-fold less) was needed for the tetravalent ligand OGP-PEG-(Cat)4 compared with the monovalent ligand OGP-Cat to achieve the same level (mass) of surface adsorption. […] Under similar conditions, the monovalent ligand was partially washed away. The adsorption kinetics were recorded by QCM-d, with regard to OGP-PEG-(Cat)4, and 2 hours were needed to reach the equilibrium state at a concentration of 0.16 μM.
To quantitatively compare the binding affinities of the multivalent binding ligands, their adsorption properties at several different concentrations were measured. The solutions at higher concentrations were switched to flow above the sensor, until the adsorption of previous solution at lower concentration reached the equilibrium state (the change in frequency shift is smaller than the signal fluctuation, 0.05 Hz/min), taking OGP-Cat as an example shown in FIG. 3A. In these experiments, the adsorption of OGP-Cat onto TiO2 surface at different concentrations was measured by QCM-d, while the concentration was increased sequentially (c1=0.068 μmol/L, c2=0.34 μmol/L, c3=1.8 μmol/L, c4=7.3 μmol/L, c5=13 μmol/L, and c6=34 μmol/L). At last the adsorbed layer was washed with 25 mM HEPES buffer. The flow rate was 0.150 mL/min. Three independent measurements (Sensors 1-3) are shown on FIG. 3A. The corresponding frequency shift was calculated using Sauerbrey Equation to get the adsorbed area mass. The adsorption isotherm of each molecule was drawn and fit with a single-site specific binding model to get the apparent disassociation constant (Kd) and maximum adsorption (Bmax) of OGP-Cat as in FIG. 3B and others in FIGS. 4A-F from the adsorbed area mass at the respective concentrations.
Quartz crystal microbalance with dissipation (QCM-d) was used to determine the binding isotherm for OGP-(Cat)4 on TiO2, Fe2O3, Fe3O4, ZrO2, CeO2, SiO2, and Au substrates. The AT cut sensors were purchased from Biolin Scientific AB (Sweden) and cleaned before use according to the protocol provided by the company. The sensor was excited at 5 MHz as its fundamental frequency. The frequency shift (Δf) and dissipation (ΔD) were measured at 3rd, 5th, 7th, 9th, 11th and 13th overtones. 25 mM HEPES buffer (pH=7.40 at 25° C.) was used as the flow medium. Sensors were mounted in the modules immediately after cleaning. […] Then solutions of catechol-bearing peptide (OGP-(Cat)4) in HEPES buffer were introduced and the flow continued until the adsorption reached its equilibrium state. If necessary, solutions at higher concentrations were introduced sequentially. Lastly, HEPES buffer was introduced again to wash the adsorbed layer. Three independent measurements were done simultaneously. The results are reported on FIG. 5.
The QCM-d measurements in Example 7 above may be used to calculate the adsorbed area mass. The adsorbed area mass was proportional to the frequency shift (Δf) and calculated by the Sauerbrey Equation. Sauerbrey Equation is
[formula] where C is the mass sensitivity constant with the value of 17.7 ng Hz^−1 cm^−2 for 5 MHz fundamental frequency crystal, n is the frequency overtone number, and n=7 was chosen to calculate the adsorption area mass. As long as the adsorbed mass is small compared to the crystal, sufficiently thin, and has limited viscoelastic coupling with the surrounding medium (ΔD<1×10^−6 per 10 Hz), this relationship is valid. […]

[11] = QCM-d adsorption of OGP-(Cat)4 to gold; assay type: binding
Procedure: as §1, §2

| binding to iron oxide [3] | binding to ZrO2 [5] | incubation time after which decrease of N1s signal was detected [6] [days] | binding to CeO2 [8] | Kd ([10]; TiO2 surface) [nM] | apparent disassociation constant Kd ([10]; TiO2 surface) [nM] | binding to TiO2 ([10]; c=1 μM) | coverage of binding sites / maximum adsorption on TiO2 ([10]; solution at 100×Kd (2.8 μM) or Kd (28 nmol/L)) [%] | SMILES | viability at 24 h [1] [%] | mean fluorescence intensity after incubation [2] | adsorption to hydroxyapatite (HA) [4] | adsorption to SiO2 ([7]; c=1 μM) | adsorption to SiO2 ([7]; c=10 μM) | adsorption to Al2O3 [9] | concentration to obtain ~6 Hz frequency shift [10] [µM] | maximum adsorption (Bmax) ([10]; TiO2 surface) [ng/cm^2] | enhancement parameter β = Ka,multi/Ka,mono ([10]; multivalent vs monovalent ligand within set with or without PEG linkage) | adsorption to gold ([11]; c=1 μM) | adsorption to Au ([11]; c=10 μM) |
| --- | --- | --- | --- | --- | --- | --- | --- | --- | --- | --- | --- | --- | --- | --- | --- | --- | --- | --- | --- |
|  |  |  |  |  |  |  |  | O=C(O)CNC(=O)CNC(=O)[C@H](Cc1ccccc1)NC(=O)CNC(=O)[C@H](Cc1ccc(O)cc1)NC(=O)[C@H](CCCCNC(=S)Nc1ccc2c(c1)C(=O)OC21c2ccc(O)cc2Oc2cc(O)ccc21)NC(=O)CCc1ccc(O)c(O)c1 [FITC-labeled OGP-Cat] (Dihydrocaffeoyl-K(FITC)YGFGG-OH) | > 98 | deceased by about a half |  |  |  |  |  |  |  |  |  |
| strong binding | strongest binding | 14 | strongest binding | 31 ± 3 | 31 ± 3 | strongest binding | 99 | O=C(O)CNC(=O)CNC(=O)[C@H](Cc1ccccc1)NC(=O)CNC(=O)[C@H](Cc1ccc(O)cc1)NC(=O)[C@H](CCCCNC(=O)[C@H](CCCCNC(=O)CCc1ccc(O)c(O)c1)NC(=O)CCc1ccc(O)c(O)c1)NC(=O)[C@H](CCCCNC(=O)CCc1ccc(O)c(O)c1)NC(=O)CCc1ccc(O)c(O)c1 [OGP-(Cat)4] (Dihydrocaffeoyl-K(Dihydrocaffeoyl)K(X1)YGFGG-OH) |  |  | weakly adsorbed; also recorded: Limited adsorption | weak adsorption | weakly adsorbed; also recorded: Limited adsorption | weakly adsorbed; also recorded: Limited adsorption | 0.32 | 160 ± 6 | 184 | some adsorption | relatively strongly adsorbed |
|  |  | 0.5 |  |  | 5700 ± 200 |  |  | NCCCC[C@H](NC(=O)CCc1ccc(O)c(O)c1)C(=O)N[C@@H](Cc1ccc(O)cc1)C(=O)NCC(=O)N[C@@H](Cc1ccccc1)C(=O)NCC(=O)NCC(=O)O [OGP-Cat] (Dihydrocaffeoyl-KYGFGG-OH) |  |  |  |  |  |  | 13 | 54 ± 4 |  |  |  |
